Experimental data published in patent US20230398130A1, “METHODS AND COMPOSITIONS FOR DIFFERENTIATING STEM CELLS” (Massachusetts Institute of Technology, priority 2020, published 2023).

Experiments:
ISC-enriched organoids [1] = experiment: Primary screen, 384-well 2.5-D organoid differentiation (ENR+CD, 6 days): carbachol-induced lysozyme secretion (LYZ.S); format: cell-based, murine; details: for Dose.FC.LYZ.S (log 2 fold change) / Dose.FC.LYZ.S: primary screen; for Dose.FC.LYZ.S: FC vs plate median
Excerpt: (§1) High-throughput screening.

ISC-enriched organoids [2] = experiment: Primary screen, 384-well 2.5-D organoid differentiation (ENR+CD, 6 days): basal lysozyme secretion (LYZ.NS); format: cell-based, murine; details: for Dose.FC.LYZ.NS: FC vs plate median; for Z.LYZ.NS: standard z score of FC
Excerpt: as §1

ISC-enriched organoids [3] = experiment: Primary screen, 384-well 2.5-D organoid differentiation (ENR+CD, 6 days, Target Selective Inhibitor Library, vs whole-plate median): ATP (CellTiter-Glo 3D, CTG); details: for Dose.FC.CTG: FC vs plate median; for Z.CTG: standard z score of FC
[4] = Dose 0.08 uM, primary screen, vs plate median
[5] = Dose 0.40 uM, primary screen, vs plate median
[6] = Dose 2.00 uM, primary screen, vs plate median
[7] = Dose 10.00 uM, primary screen, vs plate median

| Structure (SMILES) | Dose.FC.LYZ.S (log 2 fold change) (ISC-enriched organoids [1]; Dose 0.08 uM, vs plate median) | Dose.FC.LYZ.S (log 2 fold change) (ISC-enriched organoids [1]; Dose 0.40 uM, vs plate median) | Dose.FC.LYZ.S (log 2 fold change) (ISC-enriched organoids [1]; Dose 2.00 uM, vs plate median) | Z.LYZ.NS (standard z score) (ISC-enriched organoids [2]; Dose 0.08 uM, primary screen) | Dose.FC.LYZ.NS (log 2 fold change) (ISC-enriched organoids [2]; [4]) | Z.LYZ.NS (standard z score) (ISC-enriched organoids [2]; Dose 0.40 uM, primary screen) | Dose.FC.LYZ.NS (log 2 fold change) (ISC-enriched organoids [2]; [5]) | Z.LYZ.NS (standard z score) (ISC-enriched organoids [2]; Dose 2.00 uM, primary screen) | Dose.FC.LYZ.NS (log 2 fold change) (ISC-enriched organoids [2]; [6]) | Z.CTG (standard z score) (ISC-enriched organoids [3]; Dose 0.08 uM, primary screen) | Dose.FC.CTG (log 2 fold change) (ISC-enriched organoids [3]; [4]) | Z.CTG (standard z score) (ISC-enriched organoids [3]; Dose 0.40 uM, primary screen) | Dose.FC.CTG (log 2 fold change) (ISC-enriched organoids [3]; [5]) | Z.CTG (standard z score) (ISC-enriched organoids [3]; Dose 2.00 uM, primary screen) | Dose.FC.CTG (log 2 fold change) (ISC-enriched organoids [3]; [6]) | Dose.FC.LYZ.S (log 2 fold change) (ISC-enriched organoids [1]; Dose 10.00 uM, vs plate median) | Z.LYZ.NS (standard z score) (ISC-enriched organoids [2]; Dose 10.00 uM, primary screen) | Dose.FC.LYZ.NS (log 2 fold change) (ISC-enriched organoids [2]; [7]) | Z.CTG (standard z score) (ISC-enriched organoids [3]; Dose 10.00 uM, primary screen) | Dose.FC.CTG (log 2 fold change) (ISC-enriched organoids [3]; [7]) | also measured |
| --- | --- | --- | --- | --- | --- | --- | --- | --- | --- | --- | --- | --- | --- | --- | --- | --- | --- | --- | --- | --- | --- |
| CO[C@H]1C[C@@H]2CC[C@@H](C)[C@@](O)(O2)C(=O)C(=O)N2CCCC[C@H]2C(=O)O[C@H]([C@H](C)C[C@@H]2CC[C@@H](OC(=O)C(C)(CO)CO)[C@H](OC)C2)CC(=O)[C@H](C)/C=C(\C)[C@@H](O)[C@@H](OC)C(=O)[C@H](C)C[C@H](C)/C=C/C=C/C=C/1C [Temsirolimus (CCI-779, NSC 683864)] | 0.082 | 0.152 | 0.132 | 0.790 | 0.091 | 0.763 | 0.088 | 1.494 | 0.172 | 1.228 | 0.514 | 1.393 | 0.583 | 1.382 | 0.578 |  |  |  |  |  | Dose.FC.LYZ.S (log 2 fold change, carbachol-induced lysozyme secretion) (ISC-enriched organoids [1]; dose 10.00 uM, vs plate median): 0.153; Z.LYZ.NS (standard z score) (ISC-enriched organoids [2]; dose 10.00 uM): 1.035; Dose.FC.LYZ.NS (log 2 fold change, basal lysozyme secretion) (ISC-enriched organoids [2]; dose 10.00 uM, vs plate median): 0.119; Z.CTG (standard z score) (ISC-enriched organoids [3]; dose 10.00 uM): 0.478; Dose.FC.CTG (log 2 fold change, ATP) (ISC-enriched organoids [3]; dose 10.00 uM, vs plate median): 0.200 |
| COc1ccc(C(=O)Nc2sc3c(c2C(N)=O)CCCC3)cc1OC [TCS 359] | 0.098 | 0.069 | −0.006 | 0.742 | 0.085 | 0.502 | 0.058 | 0.156 | 0.018 | 0.358 | 0.150 | 0.598 | 0.250 | 0.119 | 0.050 | 0.026 | −0.072 | −0.008 | −0.212 | −0.089 |  |
| NCC(=O)Nc1ccc(-n2nc(C(F)(F)F)cc2-c2ccc3c(ccc4ccccc43)c2)cc1 [OSU-03012 (AR-12)] |  |  |  |  |  |  |  |  |  |  |  |  |  |  |  |  |  |  |  |  | Dose.FC.LYZ.S (ISC-enriched organoids [1]; Dose 0.08 uM): 0.126 log 2 fold change; Dose.FC.LYZ.S (ISC-enriched organoids [1]; Dose 0.40 uM): 0.113 log 2 fold change; Dose.FC.LYZ.S (ISC-enriched organoids [1]; Dose 2.00 uM): 0.060 log 2 fold change; Dose.FC.LYZ.S (ISC-enriched organoids [1]; Dose 10.00 uM): −0.128 log 2 fold change; Dose.FC.LYZ.NS (ISC-enriched organoids [2]; Dose 0.08 uM, primary screen): 0.087 log 2 fold change; Z.LYZ.NS (ISC-enriched organoids [2]; Dose 0.08 uM): 0.755; Dose.FC.LYZ.NS (ISC-enriched organoids [2]; Dose 0.40 uM, primary screen): 0.033 log 2 fold change; Z.LYZ.NS (ISC-enriched organoids [2]; Dose 0.40 uM): 0.285; Dose.FC.LYZ.NS (ISC-enriched organoids [2]; Dose 2.00 uM, primary screen): 0.053 log 2 fold change; Z.LYZ.NS (ISC-enriched organoids [2]; Dose 2.00 uM): 0.460; Dose.FC.LYZ.NS (ISC-enriched organoids [2]; Dose 10.00 uM, primary screen): −0.049 log 2 fold change; Z.LYZ.NS (ISC-enriched organoids [2]; Dose 10.00 uM): −0.423; Dose.FC.CTG (ISC-enriched organoids [3]; Dose 0.08 uM, primary screen): 0.205 log 2 fold change; Z.CTG (ISC-enriched organoids [3]; Dose 0.08 uM): 0.491; Dose.FC.CTG (ISC-enriched organoids [3]; Dose 0.40 uM, primary screen): 0.114 log 2 fold change; Z.CTG (ISC-enriched organoids [3]; Dose 0.40 uM): 0.272; Dose.FC.CTG (ISC-enriched organoids [3]; Dose 2.00 uM, primary screen): 0.233 log 2 fold change; Z.CTG (ISC-enriched organoids [3]; Dose 2.00 uM): 0.556; Dose.FC.CTG (ISC-enriched organoids [3]; Dose 10.00 uM, primary screen): 0.078 log 2 fold change; Z.CTG (ISC-enriched organoids [3]; Dose 10.00 uM): 0.185 |
| CCc1c(C(=O)NCCc2ccc(N3CCCCC3)cc2)[nH]c2ccc(Cl)cc12 [Org 27569] |  |  |  |  |  |  |  |  |  |  |  |  |  |  |  |  |  |  |  |  | Dose.FC.LYZ.S (ISC-enriched organoids [1]; Dose 0.08 uM): 0.174 log 2 fold change; Dose.FC.LYZ.S (ISC-enriched organoids [1]; Dose 0.40 uM): 0.032 log 2 fold change; Dose.FC.LYZ.S (ISC-enriched organoids [1]; Dose 2.00 uM): 0.059 log 2 fold change; Dose.FC.LYZ.S (ISC-enriched organoids [1]; Dose 10.00 uM): 0.001 log 2 fold change; Dose.FC.LYZ.NS (ISC-enriched organoids [2]; Dose 0.08 uM, primary screen): 0.122 log 2 fold change; Z.LYZ.NS (ISC-enriched organoids [2]; Dose 0.08 uM): 1.060; Dose.FC.LYZ.NS (ISC-enriched organoids [2]; Dose 0.40 uM, primary screen): 0.051 log 2 fold change; Z.LYZ.NS (ISC-enriched organoids [2]; Dose 0.40 uM): 0.445; Dose.FC.LYZ.NS (ISC-enriched organoids [2]; Dose 2.00 uM, primary screen): 0.078 log 2 fold change; Z.LYZ.NS (ISC-enriched organoids [2]; Dose 2.00 uM): 0.683; Dose.FC.LYZ.NS (ISC-enriched organoids [2]; Dose 10.00 uM, primary screen): 0.029 log 2 fold change; Z.LYZ.NS (ISC-enriched organoids [2]; Dose 10.00 uM): 0.248; Dose.FC.CTG (ISC-enriched organoids [3]; Dose 0.08 uM, primary screen): 0.278 log 2 fold change; Z.CTG (ISC-enriched organoids [3]; Dose 0.08 uM): 0.663; Dose.FC.CTG (ISC-enriched organoids [3]; Dose 0.40 uM, primary screen): 0.072 log 2 fold change; Z.CTG (ISC-enriched organoids [3]; Dose 0.40 uM): 0.173; Dose.FC.CTG (ISC-enriched organoids [3]; Dose 2.00 uM, primary screen): 0.362 log 2 fold change; Z.CTG (ISC-enriched organoids [3]; Dose 2.00 uM): 0.865; Dose.FC.CTG (ISC-enriched organoids [3]; Dose 10.00 uM, primary screen): 0.270 log 2 fold change; Z.CTG (ISC-enriched organoids [3]; Dose 10.00 uM): 0.646 |
| CC(C)(C)c1cnc(CSc2cnc(NC(=O)C3CCNCC3)s2)o1 [SNS-032 (BMS-387032)] | 0.070 | −0.206 | −0.301 | 0.428 | 0.049 | −1.241 | −0.143 | −2.399 | −0.276 | −0.180 | −0.075 | −0.198 | −0.083 | −2.186 | −0.915 | −0.361 | −2.214 | −0.254 | −2.411 | −1.009 |  |
